# Data reported in patent publication US20210008137A1, “EXTRACTS OF COPRINUS COMATUS AND THEIR USE FOR REGULATING THE PILOSEBACEOUS UNIT IN A HUMAN” (Symrise AG, priority 2017, published 2021).
# Tested on: human sebaceous glands (hSGs)
# Test: Sebum content of ex-vivo cultured human sebaceous glands (lipids/proteins ratio)
# Assay type: cell-based
# Conditions: 5 μM, positive control; for Sebum content in hSGs, Average as % ratio of the control group: day 6 of organ culture
# Procedure: At the end of the culture time, the sebum was extracted and quantified from each experimental group of hSGs and then normalized by the proteins extracted from the residual hSG material (mg lipids/mg proteins). As a result, the biological activity of the tested compounds is inferred by comparing the lipids/proteins ratio of the treated glands with that of the control group. Using micro-scissors and tweezers, hSGs were isolated from the pilosebaceous units of a scalp skin sample. […] After 24 hours of culture the viability of the glands was assessed via resazurin assay and then, having attested their good viability, the culture medium was substituted with the same medium supplemented with experimental extracts, whereas the control group received again the standard medium. The culture medium was renewed every other day. At day six of the organ culture, after having preventively verified the good viability of the hSGs via resazurine assay, each group of hGSs was collected and analyzed for quantifying the sebum content. […] Methods are described in detail in WO2016020339 A8. The amounts of normalized lipids obtained from the treated groups, i.e. the sebum produced by each group of hSGs, were expressed in percentages with respect to the value obtained from the control group, in order to point out the regulatory effect performed by the experimental treatment.
smiles,measurement,setting,value
"COc1cc(CNC(=O)CCCC/C=C/C(C)C)ccc1O [capsaicin, Capsaicin]",Reduction of the sebum content of the hSGs in comparison with the control group,Table 6 experiment,26.5%
same,"Sebum content in hSGs, Average as % ratio of the control group",Table 6 experiment,73.5%
same,"Sebum content in hSGs, Average as % ratio of the control group",Table 7 experiment,88.3%
